Source: US8450313B2, “2,3-diaryl- or heteroaryl-substituted 1,1,1-trifluoro-2-hydroxypropyl compounds” (Hoffmann-La Roche Inc., priority 2009, dated 2013)

Biological target: T1, full length human recombinant glucocorticoid receptor (Homo sapiens, UniProt P04150)
T1 construct: It contains some partially purified full length human recombinant glucocorticoid receptor; purchased Panvera/Invitrogen PV4302
T1 sequence (P04150 1-777): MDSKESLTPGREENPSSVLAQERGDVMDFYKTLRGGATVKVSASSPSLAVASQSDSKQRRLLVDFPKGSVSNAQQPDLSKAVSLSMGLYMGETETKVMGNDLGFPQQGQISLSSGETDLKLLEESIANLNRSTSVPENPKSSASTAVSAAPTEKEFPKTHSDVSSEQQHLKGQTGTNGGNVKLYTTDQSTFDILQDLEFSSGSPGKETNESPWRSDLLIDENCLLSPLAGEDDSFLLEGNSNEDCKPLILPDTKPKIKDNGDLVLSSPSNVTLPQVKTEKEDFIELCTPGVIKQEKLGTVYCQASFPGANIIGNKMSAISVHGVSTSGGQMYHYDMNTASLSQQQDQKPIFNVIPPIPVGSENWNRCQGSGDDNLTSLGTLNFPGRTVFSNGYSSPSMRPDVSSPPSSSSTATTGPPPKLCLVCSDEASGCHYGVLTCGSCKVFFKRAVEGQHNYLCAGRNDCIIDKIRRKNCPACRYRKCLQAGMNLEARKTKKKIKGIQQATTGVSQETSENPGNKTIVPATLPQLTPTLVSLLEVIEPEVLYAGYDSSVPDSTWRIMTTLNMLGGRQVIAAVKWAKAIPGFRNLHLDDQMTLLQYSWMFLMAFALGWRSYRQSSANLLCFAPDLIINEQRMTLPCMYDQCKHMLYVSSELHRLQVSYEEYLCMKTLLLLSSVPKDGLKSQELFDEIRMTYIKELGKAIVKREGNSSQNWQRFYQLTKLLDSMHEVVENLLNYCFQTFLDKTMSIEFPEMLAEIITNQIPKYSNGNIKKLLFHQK
Test: Glucocorticoid Receptor Binding Assay (Glucocorticoid Receptor Competitor Assay far red kit, fluorescence polarization)
Settings: competition with fluorescent GR ligand Fluormone GS Far Red, 3 hours at 22° C., pH 7.4; Ki calculated from IC50 by Cheng-Prusoff
Protocol: Glucocorticoid Receptor Binding Assay
The ability of the substances to bind to the glucocorticoid receptor was determined with the help of a commercial Glucocorticoid Receptor Competitor Assay far red kit provided by Panvera/Invitrogen (PV4302). This kit is used as provided by the supplier. It contains some partially purified full length human recombinant glucocorticoid receptor, a coactivator related GR stabilizing peptide, a tight-binding fluorescent GR ligand Fluormone™ GS Far Red as labeled tracer and a screening buffer. All reagents are prepared and the assay is run according to the recommendations of the kit manufacturer.
Briefly, the GR stabilizing peptide and the human recombinant glucocorticoid receptor are both diluted with the screening buffer (pH 7.4) and are gently mixed (no vortexing) just before the assay and kept on ice until use. The fluorescent-labeled ligand is also diluted with the screening buffer just before the assay and kept on ice until use. The substances to test are pre-diluted in pure DMSO then some water is added to get an intermediate 4.2% DMSO stock solution. Ten microliter of the intermediate stock solution is gently mixed with 5 μA of diluted fluorescent-labeled ligand and 5 μl of diluted human recombinant glucocorticoid receptor in a 384-well plate (low volume, ultraclear, glass plate from Greiner ref 788896). The plate is centrifuged, sealed and incubated for 3 hours at 22° C. in the dark. The polarized fluorescence is measured with a Zeiss-HTS reader or any equivalent equipment (610-660 nm).
All compounds were tested to determine IC50 in a serial dilution experiment. The concentration at which 50% inhibition of the fluorescent GR ligand Fluormone™ GS Far Red is obtained (the IC50) is determined after fitting with a sigmoidal dose-response model of a plot of the logarithm of the concentration versus percent inhibition measured for the different concentrations. Ki's were calculated from IC50 based on Cheng-Prusoff equation (Cheng, Y, Prusoff, W H (1973) Biochem Pharmacol 22, 3099-3108): Ki=IC50/[1+D/Kd] wherein D is the concentration of the fluorescent ligand and Kd is the binding constant for the fluorescent ligand binding to the receptor under the conditions used in the competition experiment.

Ki [nM] | SMILES
0.3 | C[C@H](c1ccc(-c2ccc(C(=O)O)c(Cl)c2)cc1Cl)[C@@](O)(c1ccc2oc(=O)n(C)c2c1)C(F)(F)F (relative stereo) [Example 124, 3,3′-Dichloro-4′-[3,3,3-trifluoro-2-hydroxy-1-methyl-2-(3-methyl-2-oxo-2,3-dihydro-benzooxazol-5-yl)-propyl]-biphenyl-4-carboxylic acid]
1.3 | COC(=O)c1ccc(-c2ccc([C@H](C)[C@](O)(c3cc4c(cc3F)OCC(=O)N4C)C(F)(F)F)c(Cl)c2)cc1F (relative stereo) [Example 136, 3′-Chloro-3-fluoro-4′-[3,3,3-trifluoro-2-(7-fluoro-4-methyl-3-oxo-3,4-dihydro-2H-benzo[1,4]oxazin-6-yl)-2-hydroxy-1-methyl-propyl]-biphenyl-4-carboxylic acid methyl ester]
2.5 | C[C@@H](c1cc(Oc2ccc(C(=O)O)cc2F)ccc1Cl)[C@](O)(c1ccc2c(c1)N(C)C(=O)CO2)C(F)(F)F (relative stereo) [Example 16, 4-{4-Chloro-3-[3,3,3-trifluoro-2-hydroxy-1-methyl-2-(4-methyl-3-oxo-3,4-dihydro-2H-benzo[1,4]oxazin-6-yl)-propyl]-phenoxy}-3-fluoro-benzoic acid]
1.5 | C[C@@H](c1ccc(-c2ccc(Cl)c(C(=O)O)c2)cc1Cl)[C@](O)(c1ccc2c(c1)N(C)C(=O)CO2)C(F)(F)F (stereo in doubt) [Example 40, 4,3′-Dichloro-4′-[3,3,3-trifluoro-2-hydroxy-1-methyl-2-(4-methyl-3-oxo-3,4-dihydro-2H-benzo[1,4]oxazin-6-yl)-propyl]-biphenyl-3-carboxylic acid]
36 | C[C@H](c1ccc(Oc2nc(C(F)(F)F)ccc2C(=O)O)cc1Cl)[C@@](O)(c1ccc2c(c1)n(C)c(=O)n2C)C(F)(F)F (stereo in doubt) [Example 111, 2-{3-Chloro-4-[2-(1,3-dimethyl-2-oxo-2,3-dihydro-1H-benzoimidazol-5-yl)-3,3,3-trifluoro-2-hydroxy-1-methyl-propyl]-phenoxy}-6-trifluoromethyl-nicotinic acid]
2.4 | C[C@H](c1ccc(Oc2ccccc2C(=O)O)cc1Cl)[C@@](O)(c1ccc2c(c1)n(C)c(=O)n2C)C(F)(F)F (relative stereo) [Example 96, 2-{3-Chloro-4-[2-(1,3-dimethyl-2-oxo-2,3-dihydro-1H-benzoimidazol-5-yl)-3,3,3-trifluoro-2-hydroxy-1-methyl-propyl]-phenoxy}-benzoic acid]
1.2 | C[C@H](c1ccc(Oc2cc(Cl)c(C(=O)O)cn2)cc1Cl)[C@@](O)(c1ccc2c(c1)N(C)C(=O)CO2)C(F)(F)F (stereo in doubt) [Example 211, 4-Chloro-6-{3-chloro-4-[3,3,3-trifluoro-2-hydroxy-1-methyl-2-(4-methyl-3-oxo-3,4-dihydro-2H-benzo[1,4]oxazin-6-yl)-propyl]-phenoxy}-nicotinic acid]
1.8 | C[C@@H](c1ccc(-c2cc(C(=O)O)ccc2F)cc1Cl)[C@](O)(c1ccc2c(c1)N(C)C(=O)CO2)C(F)(F)F (relative stereo) [Example 38, 3′-Chloro-6-fluoro-4′-[3,3,3-trifluoro-2-hydroxy-1-methyl-2-(4-methyl-3-oxo-3,4-dihydro-2H-benzo[1,4]oxazin-6-yl)-propyl]-biphenyl-3-carboxylic acid]
1.7 | C[C@H](c1ccc(Oc2ncc(C(=O)O)cc2Cl)cc1Cl)[C@@](O)(c1ccc2c(c1)N(C)C(=O)CO2)C(F)(F)F (racemic) [Example 213, 5-Chloro-6-{3-chloro-4-[3,3,3-trifluoro-2-hydroxy-1-methyl-2-(4-methyl-3-oxo-3,4-dihydro-2H-benzo[1,4]oxazin-6-yl)-propyl]-phenoxy}-nicotinic acid]
1.2 | COC(=O)c1ccc(-c2ccc([C@@H](C)[C@@](O)(c3ccc4oc(=O)n(C)c4c3)C(F)(F)F)c(Cl)c2)cc1OC (relative stereo) [Example 131, 3′-Chloro-3-methoxy-4′-[3,3,3-trifluoro-2-hydroxy-1-methyl-2-(3-methyl-2-oxo-2,3-dihydro-benzooxazol-5-yl)-propyl]-biphenyl-4-carboxylic acid methyl ester]
1.6 | C[C@H](c1ccc(Oc2ncccn2)cc1Cl)[C@@](O)(c1ccc2oc(=O)n(C)c2c1)C(F)(F)F (stereo in doubt) [Example 196, 5-{2-[2-Chloro-4-(pyrimidin-2-yloxy)-phenyl]-1-hydroxy-1-trifluoromethyl-propyl}-3-methyl-3H-benzooxazol-2-one]
0.5 | C[C@H](c1ccc(-c2ccc(C(=O)O)cc2F)cc1Cl)[C@@](O)(c1ccc2oc(=O)n(C)c2c1)C(F)(F)F (relative stereo) [Example 126, 3′-Chloro-2-fluoro-4′-[3,3,3-trifluoro-2-hydroxy-1-methyl-2-(3-methyl-2-oxo-2,3-dihydro-benzooxazol-5-yl)-propyl]-biphenyl-4-carboxylic acid]
609 | C[C@H](c1ccc(-c2ccc(C(=O)O)c(F)c2)cc1Cl)[C@@](O)(c1ccc2c(c1)N(C)C(=O)C(C)(C)O2)C(F)(F)F (relative stereo) [Example 168, 3′-Chloro-3-fluoro-4′-[3,3,3-trifluoro-2-hydroxy-1-methyl-2-(2,2,4-trimethyl-3-oxo-3,4-dihydro-2H-benzo[1,4]oxazin-6-yl)-propyl]-biphenyl-4-carboxylic acid]
0.4 | COc1ccc([C@@H](C)[C@@](O)(c2ccc3oc(=O)n(C)c3c2)C(F)(F)F)c(Cl)c1 (stereo in doubt) [Example 171, 5-[2-(2-Chloro-4-methoxy-phenyl)-1-hydroxy-1-trifluoromethyl-propyl]-3-methyl-3H-benzooxazol-2-one]
2 | C[C@@H](c1cc(OCc2ccc(C(=O)O)cc2)ccc1Cl)[C@](O)(c1ccc2c(c1)N(C)C(=O)CO2)C(F)(F)F (relative stereo) [Example 2, 4-{4-Chloro-3-[3,3,3-trifluoro-2-hydroxy-1-methyl-2-(4-methyl-3-oxo-3,4-dihydro-2H-benzo[1,4]oxazin-6-yl)-propyl]-phenoxymethyl}-benzoic acid]
2.1 | C[C@H](c1ccc(Oc2cc(C(F)(F)F)c(C(=O)O)cn2)cc1Cl)[C@@](O)(c1ccc2c(c1)N(C)C(=O)CO2)C(F)(F)F [Example 62]
0.5 | C[C@@H](c1ccc(Oc2cc(C(F)(F)F)c(C(=O)O)cn2)cc1Cl)[C@](O)(c1ccc2c(c1)n(C)c(=O)n2C)C(F)(F)F (relative stereo) [Example 102, 6-{3-Chloro-4-[2-(1,3-dimethyl-2-oxo-2,3-dihydro-1H-benzoimidazol-5-yl)-3,3,3-trifluoro-2-hydroxy-1-methyl-propyl]-phenoxy}-4-trifluoromethyl-nicotinic acid]
210 | C[C@H](c1ccc(-c2ccc(C(=O)O)c(F)c2)cc1Cl)[C@@](O)(c1ccc2c(c1)N(C)CCO2)C(F)(F)F (stereo in doubt) [Example 170, 3′-Chloro-3-fluoro-4′-[3,3,3-trifluoro-2-hydroxy-1-methyl-2-(4-methyl-3,4-dihydro-2H-benzo[1,4]oxazin-6-yl)-propyl]-biphenyl-4-carboxylic acid]
1.3 | C[C@H](c1ccc(-c2cccc(C(=O)O)c2)cc1Cl)[C@@](O)(c1ccc2c(c1)n(C)c(=O)n2C)C(F)(F)F (stereo in doubt) [Example 78, 3′-Chloro-4′-[2-(1,3-dimethyl-2-oxo-2,3-dihydro-1H-benzoimidazol-5-yl)-3,3,3-trifluoro-2-hydroxy-1-methyl-propyl]-biphenyl-3-carboxylic acid]
